This passage reports TGI and GI50 results from PubChem BioAssay (NCI).

Where “and” joins values, the source holds several entries; their conditions need not be identical. Identical values can stand only once.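 Cells were grown in 96-well plates and exposed to each compound for 48 hours at five concentrations; endpoints were interpolated linearly between bracketing concentrations, or set to the highest concentration if not reached. Here, GI50 denotes the concentration required for 50% inhibition of growth. TGI: total growth inhibition.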

One assay relates to SNB-19 CNS. The experiment in a line: NCI tumour cell line growth inhibition, 48 h.
Regarding `O=c1nc2c(c(-c3ccccc3Cl)[nH]1)COC/C2=C\c1ccccc1Cl`, the TGI was greater than 100 µM.

The next assay concerns SN12C renal. Briefly: NCI tumour cell line growth inhibition, 48 h.
With `Cc1ccc(/C(O)=C/C(=O)C(=O)/C=C(\O)c2ccc(C)cc2C)c(C)c1`, the TGI is 4.88 µM.
Same read-out and setting: the same measure for `O=C(NCCCCCCNCc1cccc2ccccc12)Nc1cccc2ccccc12`: greater than 100 µM; for `Cc1ccc([C@H]2CC(=O)C[C@H](c3ccc(C)cc3)C23C(=O)c2ccccc2C3=O)cc1`: greater than 100 µM.
Still for that read-out and setting: the same measure for `O=c1c2ncn(COCCCl)c2n(-c2ccccc2)c(=S)n1-c1ccccc1`: greater than 100 µM; for `COc1ccc(/C=N/N=C(\N)NO)c(O)c1`: greater than 10 µM; for `CC1(CF)SCc2nc3ccccc3n21` (stereo unspecified): greater than 100 µM.
For `NCCSc1nc2ccccc2c(=O)n1-c1ccccc1`, the TGI is greater than 100 µM.
The compound `Nc1cccc(Nc2nc3ccccc3nc2NS(=O)(=O)c2ccccc2)c1` registered a TGI greater than 100 µM.
Regarding `COC(=O)C1=CC(=O)OC1(OO)c1ccccc1` (stereo unspecified), the TGI was greater than 100 µM.
On the same count and under the same terms, the same measure for `CN(C)Cc1cc(C(=O)/C=C/c2ccccc2Cl)cc(CN(C)C)c1O`: 23.6 µM; for `O=C1NC(N/N=C/C(O)C(O)C(O)CO)=N/C1=C\c1ccco1` (stereo unspecified): greater than 100 µM.
For the compound `COc1cc(CNc2ccc(SC)cc2)cc(OC)c1OC`, the GI50 was 19.3 µM and 9.07 µM; the TGI was greater than 100 µM.
Take `Nc1ccc(N=Nc2ccccc2)cc1`: the TGI is greater than 100 µM.
As for `Cc1ccn2c(=O)cc(-c3ccccc3)nc2c1`, the TGI is greater than 100 µM.
As for `O=c1[nH]nc(Cc2ccc([N+](=O)[O-])cc2)n1CCO`, the TGI was greater than 100 µM.
On to `c1cc2nnnn2nc1N1CCCC1`, for which the TGI was greater than 100 µM.
Regarding `N#Cc1c(-c2ccccc2)nc(-c2ccccc2)sc1=S`, the TGI is greater than 100 µM.
In turn, `CCn1nc2c3c(ncn3C(C)(C)O2)c1=O` had a TGI greater than 100 µM.
In turn, `CCC(C#N)NC(=O)NC(C#N)CC` (stereo unspecified) yielded a TGI greater than 100 µM.
Still for that read-out and setting: the same measure for `CCc1ccc2oc(-c3cc(O)c(-c4nc5cc(CC)ccc5o4)cc3O)nc2c1`: greater than 100 µM; for `CCOC(=O)/C=C(/C(=O)OCC)n1ccc(N)nc1=O`: greater than 100 µM.
On the same count and under the same terms, the same measure for `CC(=O)O[C@H]1C#C/C=C\C#CC[C@@H]2C(=O)N[C@@H]12`: greater than 80.4 µM; for `CCCSc1ccc2[nH]c(/N=C/c3ccco3)cc2c1`: greater than 100 µM.
Regarding `Cc1ccc2c(c1)[nH]c1cc(C(F)(F)F)ccc1[p+]2=O` (stereo unspecified), the TGI is greater than 100 µM.
Compound `CN(O)C(=O)c1cccc(Cl)c1` returned a TGI greater than 100 µM.
Regarding `CCC1(C)N=C(c2cnccn2)NN1c1ccc(Cl)cc1` (stereo unspecified), the TGI is 72.3 µM.
Turning to `C1CNCCNCCN1`, the TGI was greater than 100 µM.
`O=c1nc2c(c(-c3ccccc3Cl)[nH]1)COC/C2=C\c1ccccc1Cl` displayed a TGI greater than 100 µM.

For the next assay, the system named is MCF7 breast. Briefly: NCI tumour cell line growth inhibition, 48 h.
The compound `Cc1ccc(/C(O)=C/C(=O)C(=O)/C=C(\O)c2ccc(C)cc2C)c(C)c1` came in with a TGI of 4.33 µM.
The compound `O=C(NCCCCCCNCc1cccc2ccccc12)Nc1cccc2ccccc12` gave a TGI greater than 100 µM.
Consider `Cc1ccc([C@H]2CC(=O)C[C@H](c3ccc(C)cc3)C23C(=O)c2ccccc2C3=O)cc1`, for which the TGI is greater than 100 µM.
As for `O=c1c2ncn(COCCCl)c2n(-c2ccccc2)c(=S)n1-c1ccccc1`, the TGI was greater than 100 µM.
The compound `COc1ccc(/C=N/N=C(\N)NO)c(O)c1` yielded a TGI greater than 10 µM.
In turn, `CC1(CF)SCc2nc3ccccc3n21` (stereo unspecified) registered a TGI greater than 100 µM.
As for `NCCSc1nc2ccccc2c(=O)n1-c1ccccc1`, the TGI is greater than 100 µM.
The compound `Nc1cccc(Nc2nc3ccccc3nc2NS(=O)(=O)c2ccccc2)c1` registered a TGI greater than 100 µM.
On the same count and under the same terms, the same measure for `COC(=O)C1=CC(=O)OC1(OO)c1ccccc1` (stereo unspecified): greater than 100 µM; for `CN(C)Cc1cc(C(=O)/C=C/c2ccccc2Cl)cc(CN(C)C)c1O`: 26.1 µM.
`O=C1NC(N/N=C/C(O)C(O)C(O)CO)=N/C1=C\c1ccco1` (stereo unspecified) gave a TGI greater than 100 µM.
Regarding `COc1cc(CNc2ccc(SC)cc2)cc(OC)c1OC`, the TGI is greater than 100 µM.
`Nc1ccc(N=Nc2ccccc2)cc1`: the TGI is greater than 100 µM.
The compound `Cc1ccn2c(=O)cc(-c3ccccc3)nc2c1` showed a TGI greater than 100 µM.
On to `O=c1[nH]nc(Cc2ccc([N+](=O)[O-])cc2)n1CCO`, for which the TGI was greater than 100 µM.
As to `c1cc2nnnn2nc1N1CCCC1`, the TGI is greater than 100 µM.
Turning to `N#Cc1c(-c2ccccc2)nc(-c2ccccc2)sc1=S`, the TGI is greater than 100 µM.
Turning to `CCn1nc2c3c(ncn3C(C)(C)O2)c1=O`, the TGI is greater than 100 µM.
Take `CCC(C#N)NC(=O)NC(C#N)CC` (stereo unspecified): the TGI is greater than 100 µM.
With `CCc1ccc2oc(-c3cc(O)c(-c4nc5cc(CC)ccc5o4)cc3O)nc2c1`, the TGI is greater than 100 µM.
Same read-out and setting: the same measure for `CCOC(=O)/C=C(/C(=O)OCC)n1ccc(N)nc1=O`: greater than 100 µM.
Still for that read-out and setting: the same measure for `CC(=O)O[C@H]1C#C/C=C\C#CC[C@@H]2C(=O)N[C@@H]12`: greater than 100 µM.
Compound `CCCSc1ccc2[nH]c(/N=C/c3ccco3)cc2c1` displayed a TGI greater than 100 µM.
For the compound `Cc1ccc2c(c1)[nH]c1cc(C(F)(F)F)ccc1[p+]2=O` (stereo unspecified), the TGI was greater than 100 µM.
As for `CN(O)C(=O)c1cccc(Cl)c1`, the TGI is greater than 100 µM.
On to `CCC1(C)N=C(c2cnccn2)NN1c1ccc(Cl)cc1` (stereo unspecified), for which the TGI is greater than 100 µM.
Consider `C1CNCCNCCN1`, for which the TGI is greater than 100 µM.
Take `O=c1nc2c(c(-c3ccccc3Cl)[nH]1)COC/C2=C\c1ccccc1Cl`: the TGI was greater than 100 µM.

A further assay deals with HCT-15 colon. Briefly: NCI tumour cell line growth inhibition, 48 h.
`Cc1ccc(/C(O)=C/C(=O)C(=O)/C=C(\O)c2ccc(C)cc2C)c(C)c1` had a TGI of 4.47 µM.
In turn, `O=C(NCCCCCCNCc1cccc2ccccc12)Nc1cccc2ccccc12` yielded a TGI greater than 100 µM.
Turning to `Cc1ccc([C@H]2CC(=O)C[C@H](c3ccc(C)cc3)C23C(=O)c2ccccc2C3=O)cc1`, the TGI was greater than 100 µM.
`O=c1c2ncn(COCCCl)c2n(-c2ccccc2)c(=S)n1-c1ccccc1` showed a TGI greater than 100 µM.
`COc1ccc(/C=N/N=C(\N)NO)c(O)c1`: the TGI is greater than 10 µM.
For the compound `CC1(CF)SCc2nc3ccccc3n21` (stereo unspecified), the TGI is greater than 100 µM.
On to `NCCSc1nc2ccccc2c(=O)n1-c1ccccc1`, for which the TGI is greater than 100 µM.
Compound `Nc1cccc(Nc2nc3ccccc3nc2NS(=O)(=O)c2ccccc2)c1` showed a TGI of 74.2 µM.
Consider `COC(=O)C1=CC(=O)OC1(OO)c1ccccc1` (stereo unspecified), for which the TGI was greater than 100 µM.
In turn, `CN(C)Cc1cc(C(=O)/C=C/c2ccccc2Cl)cc(CN(C)C)c1O` yielded a TGI of 36 µM.
On to `O=C1NC(N/N=C/C(O)C(O)C(O)CO)=N/C1=C\c1ccco1` (stereo unspecified), for which the TGI was greater than 100 µM.
The same measure, in the same setting: the same measure for `COc1cc(CNc2ccc(SC)cc2)cc(OC)c1OC`: 57.5 µM and 78.2 µM.
Regarding `Nc1ccc(N=Nc2ccccc2)cc1`, the TGI is greater than 100 µM.
